Results as given in patent US7135466B2 (Kirin Beer Kabushiki Kaisha, priority 1999, dated 2006).
Like-named read-outs stand apart in the source and are kept apart here.

Legend:
[1] = molecular target: T1, PDGF-Ra (Homo sapiens, UniProt P16234); assay: Inhibitory activity against PDGF-Ra phosphorylation by PDGF-AA stimulation using G292; type: cell-based; conditions: for IC50: > means inhibition at indicated concentration not more than 50%, < and << not less than 50%, read-out: PDGF (E) IC50; for inhibition at 0.1 µM: G292, figure in parentheses in >100( ), at 100 nM, read-out: PDGF (E) inhibition (%) at 100 nM
T1 construct: host or cells: G-292 human osteosarcoma cells
In short: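 Human osteosarcoma G-292, 0.1% FBS o/n; cpd (DMSO) 1 h 37 °C; PDGF-AA 50 ng/ml 5 min; lyse 20 min RT; PY-20 capture 4 °C o/n; anti-PDGF-Ra + HRP-GAR; OD450.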

[2] = molecular target: T2, c-kit (Homo sapiens, UniProt P10721); assay: Inhibitory activity against c-kit autophosphorylation (MO7e cells, h-SCF); type: cell-based; conditions: for IC50: MO7e cells, read-out: c-kit IC50; for inhibition at 1 µM: Mo7e, at 1000 nM
T2 construct: MO7e (human megakaryocytic leukemia cell line) which had been arrested for 20 hr; endogenous in cells; host or cells: MO7e human megakaryocytic leukemia cell line
In short: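 First, human megakaryocytic leukemia MO7e cells arrested 20 hr receive compound for one hour. Second, SCF stimulation (50 ng/ml) runs 5 min, after which cells are solubilized. Third, tyrosine-phosphorylated c-kit in the lysate is quantified by sandwich ELISA with absorbance at 450 nm.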

[3] = figure within parentheses in −( ) or >1000( )

T1 sequence (P16234 24-1089): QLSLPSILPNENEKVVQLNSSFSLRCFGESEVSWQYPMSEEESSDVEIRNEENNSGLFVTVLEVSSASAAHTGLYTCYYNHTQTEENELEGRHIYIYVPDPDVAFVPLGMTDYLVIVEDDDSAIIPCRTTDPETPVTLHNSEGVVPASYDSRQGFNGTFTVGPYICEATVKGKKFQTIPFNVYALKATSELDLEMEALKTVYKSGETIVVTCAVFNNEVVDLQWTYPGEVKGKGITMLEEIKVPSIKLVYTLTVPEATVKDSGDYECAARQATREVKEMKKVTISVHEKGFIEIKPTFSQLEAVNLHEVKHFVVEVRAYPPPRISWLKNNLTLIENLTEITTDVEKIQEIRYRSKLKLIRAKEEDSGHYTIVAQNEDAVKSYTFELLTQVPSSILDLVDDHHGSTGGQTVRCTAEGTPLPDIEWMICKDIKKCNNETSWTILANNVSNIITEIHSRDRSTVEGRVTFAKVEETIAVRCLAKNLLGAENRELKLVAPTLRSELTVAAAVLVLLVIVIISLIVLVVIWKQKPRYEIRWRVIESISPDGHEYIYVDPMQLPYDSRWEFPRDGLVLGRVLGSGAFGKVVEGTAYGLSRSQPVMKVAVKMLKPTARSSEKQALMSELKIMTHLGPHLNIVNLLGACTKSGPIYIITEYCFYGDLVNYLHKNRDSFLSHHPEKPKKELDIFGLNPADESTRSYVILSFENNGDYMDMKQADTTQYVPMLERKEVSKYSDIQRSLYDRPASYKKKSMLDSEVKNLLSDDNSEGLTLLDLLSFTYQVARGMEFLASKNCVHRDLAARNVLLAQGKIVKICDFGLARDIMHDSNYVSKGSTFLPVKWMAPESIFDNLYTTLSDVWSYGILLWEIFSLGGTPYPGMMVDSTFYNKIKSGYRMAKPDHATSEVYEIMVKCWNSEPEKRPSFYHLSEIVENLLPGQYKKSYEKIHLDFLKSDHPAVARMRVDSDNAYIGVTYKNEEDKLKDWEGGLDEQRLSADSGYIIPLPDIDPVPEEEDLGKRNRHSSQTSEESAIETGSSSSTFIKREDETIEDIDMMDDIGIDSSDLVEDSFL
T2 sequence (P10721 26-976): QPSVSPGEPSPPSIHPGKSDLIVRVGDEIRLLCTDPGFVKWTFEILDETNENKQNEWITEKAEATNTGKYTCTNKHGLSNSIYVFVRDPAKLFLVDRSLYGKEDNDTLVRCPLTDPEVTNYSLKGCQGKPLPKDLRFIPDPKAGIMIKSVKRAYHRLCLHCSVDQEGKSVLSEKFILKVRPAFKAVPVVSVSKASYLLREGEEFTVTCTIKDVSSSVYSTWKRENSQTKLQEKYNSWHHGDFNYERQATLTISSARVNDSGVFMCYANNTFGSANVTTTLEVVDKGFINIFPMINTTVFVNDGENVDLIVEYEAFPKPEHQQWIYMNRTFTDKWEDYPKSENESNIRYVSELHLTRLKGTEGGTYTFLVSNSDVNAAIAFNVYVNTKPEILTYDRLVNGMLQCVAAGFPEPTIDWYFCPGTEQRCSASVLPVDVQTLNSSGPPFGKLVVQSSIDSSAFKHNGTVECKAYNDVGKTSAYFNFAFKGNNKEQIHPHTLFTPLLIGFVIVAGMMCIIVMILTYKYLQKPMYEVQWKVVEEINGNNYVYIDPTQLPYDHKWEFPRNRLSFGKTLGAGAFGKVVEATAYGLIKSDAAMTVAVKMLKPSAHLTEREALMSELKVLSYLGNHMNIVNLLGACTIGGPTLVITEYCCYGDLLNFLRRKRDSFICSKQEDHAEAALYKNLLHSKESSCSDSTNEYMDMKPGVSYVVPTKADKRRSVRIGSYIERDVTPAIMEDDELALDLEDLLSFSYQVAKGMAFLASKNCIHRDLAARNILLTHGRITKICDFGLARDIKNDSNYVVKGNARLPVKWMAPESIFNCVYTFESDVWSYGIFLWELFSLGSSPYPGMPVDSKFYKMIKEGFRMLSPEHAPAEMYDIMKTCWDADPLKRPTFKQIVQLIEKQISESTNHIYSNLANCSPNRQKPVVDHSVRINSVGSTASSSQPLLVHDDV

| Molecule | IC50 [1] [nM] | IC50 ([1]; Pharmacological Test Example 1) [nM] | IC50 ([2]; h-SCF 50 ng/ml) [nM] | further results |
| --- | --- | --- | --- | --- |
| COc1cc2nccc(Oc3cc(C)c(NC(=O)OCCCSc4ccc(Cl)cc4C)cc3C)c2cc1OC [Example 79, 3-[(4-Chloro-2-methylphenyl)sulfanyl]propyl N-{4-[(6,7-dimethoxy-4-quinolyl)oxy]-2,5-dimethylphenyl}carbamate] |  | 18 | 123 |  |
| COc1cc2nccc(Oc3ccc(NC(=O)OCCSc4cc(C)ccc4C)c(C)c3C)c2cc1OC [Example 166, 2-[(2,5-Dimethylphenyl)sulfanyl]ethyl N-{4-[(6,7-dimethoxy-4-quinolyl)oxy]-2,3-dimethylphenyl}carbamate] |  | 34 | 145 |  |
| COc1cc2ncnc(Oc3ccc(NC(=O)OCC4CCCCC4)cc3)c2cc1OC [Example 340, Cyclohexylmethyl N-{4-[(6,7-dimethoxy-4-quinazolinyl)oxy]phenyl}carbamate] |  | < 10 | 107 |  |
| COc1cc2ncnc(Oc3ccc(NC(=O)OCCC4CCCCC4)c(Cl)c3)c2cc1OC [Example 357, 2-Cyclohexylethyl N-{2-chloro-4-[(6,7-dimethoxy-4-quinazolinyl)oxy]phenyl}carbamate] |  | < 10 | 116 |  |
| COc1cc2nccc(Oc3ccc(NC(=O)OC4CCCCCC4)c(C)c3C)c2cc1OC [Example 288, Cycloheptyl N-{4-[(6,7-dimethoxy-4-quinolyl)oxy]-2,3-dimethylphenyl}carbamate] |  | < 10 | 162 |  |
| COc1cc2ncnc(Oc3ccc(NC(=O)OCc4ccc(C(F)(F)F)cc4)c(Cl)c3)c2cc1OC [Example 25, 4-(Trifluoromethyl)benzyl N-{2-chloro-4-[(6,7-dimethoxy-4-quinazolinyl)oxy]phenyl}carbamate] |  | < 10 | 566 |  |
| CCCCOC(=O)Nc1ccc(Oc2ccnc3cc(OC)c(OC)cc23)cc1 [Example 321, Butyl N-{4-[(6,7-dimethoxy-4-quinolyl)oxy]phenyl}carbamate] |  | < 10 | 37 |  |
| COc1ccc(C(C)OC(=O)Nc2cc(C)c(Oc3ccnc4cc(OC)c(OC)cc34)cc2C)cc1 (stereo not drawn) [Example 34, 1-(4-Methoxyphenyl)ethyl N-{4-[(6,7-dimethoxy-4-quinolyl)oxy]-2,5-dimethylphenyl}carbamate] |  | > 100 | 800 | inhibition at 0.1 µM [1]: 45% |
| COc1cc2nccc(Oc3ccc(NC(=O)Oc4ccc(C(C)(C)C)cc4)c(C)c3C)c2cc1OC [Example 275, 4-(Tert-butyl)phenyl N-{4-[(6,7-dimethoxy-4-quinolyl)oxy]-2,3-dimethylphenyl}carbamate] |  | 16 | 103 |  |
| COc1cc2nccc(Oc3ccc(NC(=O)OCc4ccc(Cl)cc4)c(C)c3C)c2cc1OC [Example 237, 4-Chlorobenzyl N-{4-[(6,7-dimethoxy-4-quinolyl)oxy]-2,3-dimethylphenyl}carbamate] |  | 6 | 42 |  |
| CCCCc1ccc(OC(=O)Nc2ccc(Oc3ccnc4cc(OC)c(OC)cc34)c(C)c2C)cc1 [Example 273, 4-Butylphenyl N-{4-[(6,7-dimethoxy-4-quinolyl)oxy]-2,3-dimethylphenyl}carbamate] |  | 23 | 107 |  |
| COc1cc2ncnc(Oc3ccc(NC(=O)OC(C)c4ccccc4Cl)c(Cl)c3)c2cc1OC (stereo not drawn) [Example 16, 1-(2-Chlorophenyl)ethyl N-{2-chloro-4-[(6,7-dimethoxy-4-quinazolinyl)oxy]phenyl}carbamate] |  | < 10 | 495 |  |
| 4-(Dimethylamino)butyl N-{4-[(6,7-dimethoxy-4-quinazolinyl)oxy]phenyl}carbamate [Example 194] |  | 91 | 715 |  |
| COc1cc2nccc(Oc3ccc(NC(=O)OC(C)c4cccc(F)c4)cc3)c2cc1OC (stereo not drawn) [Example 97, 1-(3-Fluorophenyl)ethyl N-{4-[(6,7-dimethoxy-4-quinolyl)oxy]phenyl}carbamate] |  | < 10 | 254 |  |

Now from value to molecule, other results behind:

| IC50 [1] [nM] | IC50 ([1]; Pharmacological Test Example 1) [nM] | IC50 ([2]; h-SCF 50 ng/ml) [nM] | Molecule | further results |
| --- | --- | --- | --- | --- |
| 31 |  |  | COc1cc2ncnc(Oc3ccc(NC(=S)NC(=O)C4CC4C)cc3)c2cc1OC (stereo not drawn) [Example 1191, N-{4-[(6,7-Dimethoxy-4-quinazolinyl)oxy]phenyl}-N′-[(2-methylcyclopropyl)carbonyl]thiourea] | IC50 ([2]; h-SCF stimulation): 193 nM |
| 16 |  |  | COc1cc2ncnc(Oc3ccc(N(C)C(=O)OC4CCCCCC4)cc3)c2cc1OC [Example 494, Cycloheptyl N-{4-[(6,7-dimethoxy-4-quinazolinyl)oxy]phenyl}-N-methylcarbamate] | IC50 ([2]; 50 ng/ml h-SCF): 125 nM |
| 13 |  |  | COc1cc2ncnc(Oc3ccc(N(C)C(=O)OCc4ccccc4C)c(Cl)c3)c2cc1OC [Example 479, 2-Methylbenzyl N-{2-chloro-4-[(6,7-dimethoxy-4-quinazolinyl)oxy]phenyl}-N-methylcarbamate] | inhibition at 1 µM [2, 3]: 17% |
|  | 82 | 90 | COc1cc2ncnc(Oc3ccc(NC(=O)OC4CCCC4)c(C)c3C)c2cc1OC [Example 393, Cyclopentyl N-{4-[(6,7-dimethoxy-4-quinazolinyl)oxy]-2,3-dimethylphenyl}carbamate] |  |
| 19 |  |  | COc1cc2nccc(Oc3ccc(NC(=O)NCCN(C(C)C)C(C)C)cc3)c2cc1OC [Example 654, N-[2-(Diisopropylamino)ethyl]-N′-{4-[(6,7-dimethoxy-4-quinolyl)oxy]phenyl}urea] | IC50 ([2]; 50 ng/ml h-SCF): 698 nM |
|  | < 10 | 31 | COc1cc2nccc(Oc3ccc(NC(=O)OCC4CCC4)c(C)c3C)c2cc1OC [Example 387, Cyclobutylmethyl N-{4-[(6,7-dimethoxy-4-quinolyl)oxy]-2,3-dimethylphenyl}carbamate] |  |
| 17 |  |  | COc1cc2nccc(Oc3ccc(NC(=S)NC(=O)C4(C)CC4(Cl)Cl)cc3Cl)c2cc1OC (stereo not drawn) [Example 750, N-{3-Chloro-4-[(6,7-dimethoxy-4-quinolyl)oxy]phenyl}-N′-[(2,2-dichloro-1-methylcyclopropyl)carbonyl]thiourea] | inhibition at 1 µM [2, 3]: 43% |
| > 100 |  |  | COc1cc2nccc(Oc3cc(C)c(NCCOc4c(C)cccc4C)cc3C)c2cc1OC [Example 895, N-{4-[(6,7-Dimethoxy-4-quinolyl)oxy]-2,5-dimethylphenyl}-N-[2-(2,6-dimethylphenoxy)ethyl]amine] | inhibition at 0.1 µM [1]: 33%; inhibition at 1 µM ([2]; figure in parentheses in −( )): 20% |
| 18 |  |  | COc1cc2ncnc(Oc3ccc(OCCCOc4ccccc4OC)cc3)c2cc1OC [Example 810, 6,7-Dimethoxy-4-{4-[3-(2-methoxyphenoxy)propoxy]phenoxy}quinazoline] | IC50 ([2]; h-SCF stimulation): 269 nM |
| 34 |  |  | COc1cc2nccc(Oc3ccc(NC(=S)NC(=O)Cc4ccccc4F)cc3Cl)c2cc1OC [Example 730, N-{3-Chloro-4-[(6,7-dimethoxy-4-quinolyl)oxy]phenyl}-N′-[2-(2-fluorophenyl)acetyl]thiourea] | IC50 ([2]; 50 ng/ml h-SCF): 634 nM |
| 23 |  |  | COc1cc2nccc(Oc3ccc(NC(=S)NC(=O)N(C(C)C)C(C)C)cc3Cl)c2cc1OC [Example 1050, N-{3-Chloro-4-[(6,7-dimethoxy-4-quinolyl)oxy]phenyl}-{[(diisopropylamino)carbonyl]amino}methanethioamide] | IC50 ([2]; h-SCF stimulation): 579 nM |
| 59 |  |  | CCN(C(=O)OC1CCCCC1)c1ccc(Oc2ncnc3cc(OC)c(OC)cc23)cc1 [Example 477, Cyclohexyl N-{4-[(6,7-dimethoxy-4-quinazolinyl)oxy]phenyl}-N-ethylcarbamate] | IC50 ([2]; 50 ng/ml h-SCF): 248 nM |
